According to patent publication US8148056B2, “Methods of identifying modulators of GPR81 receptors” (Janssen Pharmaceutica NV, priority 2006, dated 2012):
Values joined by “and” are separate entries in the source; they are usually repeats but may differ in a detail not shown here. Identical values can stand only once. “Also recorded” adds a separate entry of the source. Counter-ions that a name gives are not always drawn. Like-named read-outs stand apart in the source and are kept apart here.

Tests used:
GPR81 [1] = target: T1, GPR81 (Homo sapiens, UniProt Q9BXC0); assay: GPR81 agonist ligand activity, GTPγS binding assay (species of receptor not given); type: biochemical; set-up: expressed in transfected cells; host or cells: GPR81-expressing cells / membranes (CHO); details: for GPR81 agonist activity: yes/no; for stimulation of 35S-GTPγS binding in GPR81-expressing cells / cell membranes: concentration not given
Target sequence in this assay (Q9BXC0 whole entry, species assumed): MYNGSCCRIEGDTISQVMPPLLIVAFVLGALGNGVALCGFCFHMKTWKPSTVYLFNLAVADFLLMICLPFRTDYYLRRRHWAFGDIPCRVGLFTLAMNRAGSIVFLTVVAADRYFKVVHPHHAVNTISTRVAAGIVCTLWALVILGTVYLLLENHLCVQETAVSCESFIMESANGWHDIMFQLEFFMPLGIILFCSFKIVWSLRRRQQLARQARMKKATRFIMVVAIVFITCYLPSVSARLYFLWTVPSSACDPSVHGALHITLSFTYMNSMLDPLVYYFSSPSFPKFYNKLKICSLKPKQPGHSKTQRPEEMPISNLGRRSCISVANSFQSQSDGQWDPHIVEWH

GPR81 [2] = target: T1, GPR81; details: 5 μM forskolin
From the text: A β-galactosidase (β-gal) assay system was also used to characterize the GPR81 activation in SK-N-MC/CRE-β-gal cells stably expressing human GPR81. GPCRs that couple with Gi proteins, upon activation by agonist, inhibit cAMP accumulation, and therefore inhibit forkolin-stimulated β-gal expression. A cell line stably expressing human GPR81 was established from an SK-N-MC/CRE-β-gal cell line, which harbors a β-galactosidase β-gal) gene under the control of a cAMP-responsive element (CRE). SK-N-MC/CRE-β-gal cells were transfected with the above-described human GPR81-pCIneo construct using LipofectAmine as the transfection reagent. Two days after transfection, the cells were split into new culture dishes at different densities and grown under selection of G418 for three weeks. Single isolated clones were isolated and tested for responsiveness to L-lactate stimulation. […] The β-gal activity was assayed as described (Liu et al., Mol. Pharmacol., Vol. 67, pp. 231-240 (2005)).
Target sequence in this assay (Q9BXC0 whole entry): as the sequence (Q9BXC0 whole entry, species assumed) above

[3] = cAMP inhibition-linked β-gal assay, control cells; type: cell-based
GPR81 [4] = target: T1, GPR81; details: Tunaru et al., Nat. Med. 2003; cited from earlier work
Target sequence in this assay (Q9BXC0 whole entry, species assumed): as above

HM74 [5] = assay: cAMP inhibition-linked β-gal assay, HM74 expressing cells; type: cell-based
GPR81 [6] = target: T1, GPR81; assay: 35S-GTPγS binding assay, membranes of CHO cells expressing human GPR81; type: biochemical; set-up: expressed in transfected cells; host or cells: CHO-K1 (transient, pCIneo), membranes
Target sequence in this assay (Q9BXC0 whole entry): as the sequence (Q9BXC0 whole entry, species assumed) above

HM74A = target: T2, HM74A (Homo sapiens, UniProt Q8TDS4); assay: 35S-GTPγS binding assay, HM74A-expressing CHO membranes; type: biochemical
T2 construct: expressed in transfected cells; host or cells: CHO cells, membranes

[7] = 35S-GTPγS binding assay, control membranes; type: biochemical, Chinese hamster; details: negative control
HM74 [8] = target: T3, HM74 (Homo sapiens, UniProt P49019); assay: 35S-GTPγS binding assay, HM74-expressing CHO membranes; type: biochemical
T3 construct: expressed in transfected cells; host or cells: CHO cells, membranes

rat GPR81L = assay: GTPγS binding assay, rat GPR81L; type: biochemical; details: FIG. 19
From the text: (§1) The longer polypeptide sequence was termed rat GP[…]; the shorter polypeptide sequence was termed rat GP[…]. […] The forward primer, 5' [NT] ID NO:7), and the reverse primer, [NT] […] The forward primer, [NT] ID NO:9), and reverse primer, [NT]

monkey GPR81 = assay: GTPγS binding assay, monkey GPR81; type: biochemical; details: FIG. 20
From the text: The forward primer, 5′ ACTAGAGAATTCGCCACCATGTACAACGGGTCGTGCTGCCGCAT 3′ (SEQ ID NO:15), and the reverse primer, 5′ ATGATAGCGGCCGCTCAGTGCCACTCAACAGTGTGGGGATC 3′ (SEQ ID NO:16), were designed based on the identified monkey GPR81 coding sequence and were used to amplify the monkey GPR81 coding region using monkey genomic DNA as template.

bovine GPR81 = assay: GTPγS binding assay, bovine GPR81; type: biochemical; details: FIG. 20
From the text: TAA GTC ACC AAT CC 3′ (SEQ ID NO:12), were designed based on the identified bovine GPR81 coding sequence and were used to amplify the bovine GPR81 coding region using bovine genomic DNA as template.

mouse GPR81L = target: T4, mouse GPR81L (Mus musculus, UniProt Q8C131); assay: GTPγS binding assay, mouse GPR81L; type: biochemical; details: FIG. 19
T4 construct: expressed in transfected cells; host or cells: CHO-K1 (transient, pCIneo), membranes
T4 sequence (Q8C131 with tags, fused parts or gaps): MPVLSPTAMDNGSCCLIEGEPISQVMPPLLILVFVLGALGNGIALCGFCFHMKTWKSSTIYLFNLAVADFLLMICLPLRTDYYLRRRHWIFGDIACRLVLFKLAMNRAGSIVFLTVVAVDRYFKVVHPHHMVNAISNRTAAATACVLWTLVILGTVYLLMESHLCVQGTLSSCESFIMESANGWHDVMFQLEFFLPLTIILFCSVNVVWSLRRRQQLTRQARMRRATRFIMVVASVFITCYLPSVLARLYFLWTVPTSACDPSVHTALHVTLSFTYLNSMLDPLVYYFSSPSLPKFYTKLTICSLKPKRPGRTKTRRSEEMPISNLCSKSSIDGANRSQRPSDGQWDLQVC
From the text: (§2) The longer polypeptide sequence was termed mouse GP[…]; the shorter polypeptide sequence was termed mouse GP[…].

porcine GPR81 = assay: GTPγS binding assay, porcine GPR81; type: biochemical; details: FIG. 20
rat GPR81S = assay: GTPγS binding assay, rat GPR81S; type: biochemical; details: FIG. 19
From the text: as §1

mouse GPR81S = target: T5, mouse GPR81S (Mus musculus, UniProt Q8C131); assay: GTPγS binding assay, mouse GPR81S; type: biochemical; details: FIG. 19
T5 construct: expressed in transfected cells; host or cells: CHO-K1 (transient, pCIneo), membranes
T5 sequence (Q8C131 1-343): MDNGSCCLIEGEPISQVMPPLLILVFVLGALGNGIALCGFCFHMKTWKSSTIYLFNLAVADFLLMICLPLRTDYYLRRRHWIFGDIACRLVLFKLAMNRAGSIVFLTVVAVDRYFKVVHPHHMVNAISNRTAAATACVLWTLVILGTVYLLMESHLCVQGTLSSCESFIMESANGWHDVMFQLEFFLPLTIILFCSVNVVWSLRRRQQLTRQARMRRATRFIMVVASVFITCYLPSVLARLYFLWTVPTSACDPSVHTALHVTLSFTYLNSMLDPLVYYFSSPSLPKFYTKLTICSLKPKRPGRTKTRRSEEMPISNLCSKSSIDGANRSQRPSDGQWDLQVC
From the text: as §2

dog GPR81 = assay: GTPγS binding assay, dog GPR81; type: biochemical; details: FIG. 20

T3 sequence (P49019 whole entry): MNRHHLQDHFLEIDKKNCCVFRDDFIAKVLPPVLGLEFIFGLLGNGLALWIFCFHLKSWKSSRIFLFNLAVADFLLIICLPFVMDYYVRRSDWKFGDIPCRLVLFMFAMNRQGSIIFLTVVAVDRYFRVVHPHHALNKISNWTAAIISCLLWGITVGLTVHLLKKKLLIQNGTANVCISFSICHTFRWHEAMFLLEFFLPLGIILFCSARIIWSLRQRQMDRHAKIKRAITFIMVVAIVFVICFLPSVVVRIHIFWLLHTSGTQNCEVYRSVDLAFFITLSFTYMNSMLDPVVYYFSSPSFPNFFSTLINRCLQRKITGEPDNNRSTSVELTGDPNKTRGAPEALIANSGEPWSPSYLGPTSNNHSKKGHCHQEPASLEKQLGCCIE
T2 sequence (Q8TDS4 whole entry): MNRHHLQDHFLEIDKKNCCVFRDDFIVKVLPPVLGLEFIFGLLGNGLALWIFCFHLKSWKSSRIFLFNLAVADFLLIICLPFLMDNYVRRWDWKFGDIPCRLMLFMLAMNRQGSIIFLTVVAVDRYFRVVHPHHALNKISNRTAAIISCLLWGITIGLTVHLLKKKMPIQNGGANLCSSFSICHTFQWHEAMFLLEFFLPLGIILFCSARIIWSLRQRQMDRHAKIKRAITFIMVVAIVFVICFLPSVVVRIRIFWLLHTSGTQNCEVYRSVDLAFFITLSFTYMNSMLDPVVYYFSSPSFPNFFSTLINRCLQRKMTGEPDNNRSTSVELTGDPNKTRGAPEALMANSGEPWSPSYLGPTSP

## O=C([O-])CO.[Na+] [glycolic acid, sodium salt]
GPR81 [1]; listed as glycolate, sodium salt
  GPR81 agonist activity: demonstrated significant GPR81 agonist activity
GPR81 [1]; sodium salt
  GPR81 agonist activity: yes

## CC(Cl)(Cl)C(=O)[O-].[Na+] [2,2-dichloropropionic acid, sodium salt]
GPR81 [1]
  GPR81 agonist activity: no

## CC(=O)O [acetate]
GPR81 [1]
  GPR81 agonist activity: neither acetate, pyruvate, formiate, nor glyoxylate activated GPR81 and no

## O=CC(=O)O [glyoxylate]
GPR81 [1]
  GPR81 agonist activity: neither acetate, pyruvate, formiate, nor glyoxylate activated GPR81 and no

## C[C@@H](O)C(=O)O [D-lactate]
GPR81 [1]
  efficacy as GPR81 agonist (comparison): less efficacious
  GPR81 agonist activity: demonstrated significant GPR81 agonist activity and yes

## N[C@@H](CCO)C(=O)O [L-homoserine]
GPR81 [1]
  GPR81 agonist activity: none of glucose, L-homoserine, or any L-amino acids tested activated GPR81 and no

## CC(Cl)C(=O)[O-].[Na+] (centres unmarked) [2-chloropropionic acid, sodium salt]
GPR81 [1]; listed as 2-chloropropinoate, sodium salt
  GPR81 agonist activity: showed GPR81-agonist activity
GPR81 [1]; sodium salt
  GPR81 agonist activity: yes

## O=C(O)c1cccnc1 [nicotinic acid]
GPR81 [2]
  inhibition of forskolin-induced β-gal expression in GPR81-expressing cells: failed to inhibit; also recorded: not in cells expressing GPR81
[3]
  inhibition of forskolin-induced β-gal expression in control cells not expressing a GPCR: failed to inhibit
GPR81 [4]
  activation of GPR81: does not activate
HM74 [5]
  inhibition of forskolin-induced β-gal expression in HM74 expressing cells: inhibited forskolin-induced β-gal expression

## C[C@H](O)C(=O)O [L-lactate]
GPR81 [2]
  inhibition of forskolin-induced β-gal expression in GPR81-expressing cells: inhibits forskolin-induced β-galactosidase expression
GPR81 [2]; read-out: EC50, inhibition of forskolin-induced β-gal expression in GPR81-expressing cells
  EC50: ~3 mM
[3]
  inhibition of forskolin-induced β-gal expression in control cells not expressing a GPCR: did not inhibit
[3]; listed as lactate
  inhibition of forskolin-induced β-gal expression in control cells not expressing a GPCR: not in cells not expressing GPR81
GPR81 [6]; CHO membranes, read-out: EC50, activation of human GPR81 (35S-GTPγS binding)
  EC50: ~5 mM and 5 mM
GPR81 [6]; at 1 mM concentration
  receptor activation of GPR81: capable of stimulating detectable receptor activation
HM74A
  activation of HM74A-expressing membranes (35S-GTPγS binding): did not activate
HM74 [5]
  inhibition of forskolin-induced β-gal expression in HM74 expressing cells: did not inhibit
[7]
  35S-GTPγS binding stimulation in control cells/membranes not expressing GPR81 or any GPCR: did not activate
HM74 [8]
  activation of HM74-expressing membranes (35S-GTPγS binding): did not activate

## O=C(O)C(Br)(Br)Br [tribromoacetate (TEA), tribromoacetate]
GPR81 [1]
  GPR81 agonist activity: no

## O=C(O)CCCO [γ-hydroxybutyric acid (GHB), γ-hydroxybutyric acid]
GPR81 [1]; at 1 mM and 5 mM
  stimulation of 35S-GTPγS binding in GPR81-expressing cells: significantly stimulated
GPR81 [1]
  stimulation of 35S-GTPγS binding in GPR81-expressing cells / cell membranes: stimulates
  GPR81 agonist activity: yes
GPR81 [1]; listed as GHB
  GPR81 agonist activity: activated GPR81
[7]
  35S-GTPγS binding stimulation in control cells/membranes not expressing GPR81 or any GPCR: not in the control cells; also recorded: not in cells not expressing GPR81

## O=CO [formiate]
GPR81 [1]
  GPR81 agonist activity: neither acetate, pyruvate, formiate, nor glyoxylate activated GPR81 and no

## CC(C)(O)C(=O)[O-].[Na+] [sodium hydroxyisobutyrate]
GPR81 [1]
  GPR81 agonist activity: yes
GPR81 [1]; listed as hydroxy-iso-butyrate
  GPR81 agonist activity: demonstrated significant GPR81 agonist activity

## O=C(O)C(F)F [difluoroacetate]
GPR81 [1]
  GPR81 agonist activity: showed GPR81-agonist activity

## O=C(O)C(F)(F)Cl [chlorodifluoroacetate (CDFA), chlorodifluoroacetate]
GPR81 [1]
  GPR81 agonist activity: yes
GPR81 [1]; listed as chlorodifluoroacetate
  GPR81 agonist activity: showed GPR81-agonist activity

## O=C(O)C(F)(F)F [trifluoroacetate (TFA), trifluoroacetate]
GPR81 [1]
  GPR81 agonist activity: yes
GPR81 [1]; listed as trifluoroacetate
  GPR81 agonist activity: showed GPR81-agonist activity

## CC(Cl)C(=O)Cl (centres unmarked) [2-chloropropinoyl chloride]
GPR81 [1]
  GPR81 agonist activity: showed GPR81-agonist activity and yes

## CC(O)CC(=O)O (stereo not drawn) [β-hydroxybutyrate]
Rat GPR81L
  activation of rat GPR81L: did not activate
Monkey GPR81
  activation of monkey GPR81: did not activate
Bovine GPR81
  activation of bovine GPR81: did not activate
Mouse GPR81L
  activation of mouse GPR81L: did not activate
GPR81 [6]
  activation of human GPR81 (GTPγS binding): did not activate
Porcine GPR81
  activation of porcine GPR81: did not activate
GPR81 [1]
  GPR81 agonist activity: no
Rat GPR81S
  activation of rat GPR81S: did not activate
Mouse GPR81S
  activation of mouse GPR81S: did not activate
Dog GPR81
  activation of dog GPR81: did not activate

## CCC(O)C(=O)O (stereo not drawn) [α-hydroxybutyrate]
GPR81 [1]
  GPR81 agonist activity: yes

## NCCCC(=O)O [γ-aminobutyric acid (GABA), γ-aminobutyric acid]
GPR81 [1]
  stimulation of 35S-GTPγS binding in GPR81-expressing cells / cell membranes: did not stimulate
  GPR81 agonist activity: no
GPR81 [1]; listed as gamma-aminobutyric acid (GABA)
  GPR81 agonist activity: did not activate it
